Measured values as given in patent US20100104659A1, “BENZOPYRANOPYRAZOLES” (priority 2006, published 2010).

What follows are molecules tested on RKO human colon adenocarcinoma cells (RKOp27 subclone), proliferating (assay: Alamar Blue cell viability assay, RKO p27 uninduced (proliferating)). Settings: RKOp27, 72 h, read-out: −log EC50 [mol/l] RKO p27 uninduced (proliferating), anti-proliferative/cytotoxic activity (converted).
Description: The anti-proliferative/cytotoxic activity of the compounds described herein can be tested on subclones of RKO human colon adenocarcinoma cells (Schmidt et al., Oncogene 19, 2423-2429; 2000) using the Alamar Blue cell viability assay (described in O'Brien et al. Eur J Biochem 267, 5421-5426, 2000). The compounds are dissolved as 10 mM solutions in DMSO and subsequently diluted in semi-logarithmic steps. DMSO dilutions are further diluted 1:100 into Dulbecco's modified Eagle's medium (DMEM) containing 10% fetal calf serum to a final concentration twice as much as the final concentration in the test. RKO subclones are seeded into 96 well flat bottom plates at a density of 4000 cells per well in a volume of 50 μl per well. 24 hours after seeding the 50 μl each of the compound dilutions in DMEM medium are added into each well of the 96 well plate. Each compound dilution is tested as triplicates. Wells containing untreated control cells are filled with 50 μl DMEM medium containing 1% DMSO. The cells are then incubated with the substances for 72 hours at 37° C. in a humidified atmosphere containing 5% carbon dioxide. To determine the viability of the cells, 10 μl of an Alamar Blue solution (Biosource) are added and the fluorescence is measured at an extinction of 544 nm and an emission of 590 nm. For the calculation of the cell viability the emission value from untreated cells is set as 100% viability and the emission rates of treated cells are set in relation to the values of untreated cells. Viabilities are expressed as % values. The Graphpad Prism program (GraphPad Software, Inc) is used for the calculation of EC50 values for anti-proliferative/cytotoxic activity out of the obtained dose-response curves.
Each compound dilution is tested as triplicates. Wells containing untreated control cells are filled with 50 μl DMEM medium containing 1% DMSO. The cells are then incubated with the substances for 72 hours at 37° C. in a humidified atmosphere containing 5% carbon dioxide. To determine the viability of the cells, 10 μl of an Alamar Blue solution (Biosource) are added and the fluorescence is measured at an extinction of 544 nm and an emission of 590 nm. For the calculation of the cell viability the emission value from untreated cells is set as 100% viability and the emission rates of treated cells are set in relation to the values of untreated cells. Viabilities are expressed as % values. The Graphpad Prism program is used for the calculation of EC50 values out of the obtained dose-response curves. Viability is compared of proliferating cells grown in the absence of the inducer Ponasterone A, versus viability of cells arrested by the expression of ectopic p27Kip1 induced by Ponasterone A.
Work on `CN(C(=O)N1N=C2c3cc(F)ccc3OCC2C1c1ccccc1)C1CCCNC1` (mixture of isomers) [Example 25, (3RS,3aRS)-8-Fluoro-3-phenyl-3a,4-dihydro-3H-chromeno[4,3-c]pyrazole-2-carboxylic acid (R)-methyl-piperidin-3-yl-amide and (3RS,3aRS)-8-Fluoro-3-phenyl-3a,4-dihydro-3H-chromeno[4,3-c]pyrazole-2-carboxylic acid (S)-methyl-piperidin-3-yl-amide] yielded an EC50 of no more than 100 nM.
With `CN(C)C(=O)N1N=C2c3cc(F)ccc3OC[C@H]2[C@@H]1c1cccc(O)c1` (racemic) [Example 1, (3RS,3aSR)-8-Fluoro-3-(3-hydroxy-phenyl)-3a,4-dihydro-3H-chromeno[4,3-c]pyrazole-2-carboxylic acid dimethylamide] the EC50 was 100 to 1000 nM.
In the case of `CN(C)C(=O)N1N=C2c3cc(F)ccc3OC[C@@H]2[C@@H]1c1cccc(O)c1` (racemic) [Example 2, (3RS,3aRS)-8-Fluoro-3-(3-hydroxy-phenyl)-3a,4-dihydro-3H-chromeno[4,3-c]pyrazole-2-carboxylic acid dimethylamide], the EC50 is reported as 100 to 1000 nM.
With `CN(C)CCN(C)C(=O)N1N=C2c3cc(F)ccc3OC[C@@H]2[C@@H]1c1cccc(O)c1` (racemic) [Example 4, (3RS,3aRS)-8-Fluoro-3-(3-hydroxy-phenyl)-3a,4-dihydro-3H-chromeno[4,3-c]pyrazole-2-carboxylic acid (2-dimethylamino-ethyl)-methyl-amide] the EC50 was no more than 100 nM.
`CN1CCC(N(C(=O)N2N=C3c4cc(F)ccc4OC[C@@H]3[C@@H]2c2cccc(O)c2)C2CC2)CC1` (racemic) [Example 5, (3RS,3aRS)-8-Fluoro-3-(3-hydroxy-phenyl)-3a,4-dihydro-3H-chromeno[4,3-c]pyrazole-2-carboxylic acid cyclopropyl-(1-methyl-piperidin-4-yl)-amide] was tested, and the EC50 was 100 to 1000 nM.
For `CN(C)CCCN(C)C(=O)N1N=C2c3cc(F)ccc3OC[C@@H]2[C@@H]1c1cccc(O)c1` (racemic) [Example 6, (3RS,3aRS)-8-Fluoro-3-(3-hydroxy-phenyl)-3a,4-dihydro-3H-chromeno[4,3-c]pyrazole-2-carboxylic acid (3-dimethylamino-propyl)-methyl-amide], the EC50 was no more than 100 nM.
Molecule `CN1CCC(N(C)C(=O)N2N=C3c4cc(F)ccc4OC[C@@H]3[C@@H]2c2ccccc2)CC1` (racemic) [Example 9, (3RS,3aRS)-8-Fluoro-3-phenyl-3a,4-dihydro-3H-chromeno[4,3-c]pyrazole-2-carboxylic acid methyl-(1-methyl-piperidin-4-yl)-amide] has an EC50 of no more than 100 nM.
In the case of `CCN(CCN(C)C)C(=O)N1N=C2c3cc(F)ccc3OC[C@@H]2[C@@H]1c1ccccc1` (racemic) [Example 10, (3RS,3aRS)-8-Fluoro-3-phenyl-3a,4-dihydro-3H-chromeno[4,3-c]pyrazole-2-carboxylic acid (2-dimethylamino-ethyl)-ethyl-amide], the EC50 is reported as no more than 100 nM.
`CN(C)CCCN(C)C(=O)N1N=C2c3cc(F)ccc3OC[C@@H]2[C@@H]1c1ccccc1` (racemic) [Example 11, (3RS,3aRS)-8-Fluoro-3-phenyl-3a,4-dihydro-3H-chromeno[4,3-c]pyrazole-2-carboxylic acid (3-dimethylamino-propyl)-methyl-amide] gave an EC50 of no more than 100 nM.
For `CC(C)CN(C)C(=O)N1N=C2c3cc(F)ccc3OC[C@@H]2[C@@H]1c1ccccc1` (racemic) [Example 12, (3RS,3aRS)-8-Fluoro-3-phenyl-3a,4-dihydro-3H-chromeno[4,3-c]pyrazole-2-carboxylic acid isobutyl-methyl-amide], the EC50 was 100 to 1000 nM.
`CN1CCC(N(C(=O)N2NC3c4cc(F)ccc4OC[C@H]3[C@@H]2c2ccccc2)C2CC2)CC1` (mixture of isomers) [Example 15, (3RS,3aRS)-8-Fluoro-3-phenyl-1,3a,4,9b-tetrahydro-3H-chromeno[4,3-c]pyrazole-2-carboxylic acid cyclopropyl-(1-methyl-piperidin-4-yl)-amide] gave an EC50 of no more than 100 nM.
